Data published in patent US9102701B2, “17-hydroxy-17-pentafluoroethyl-estra-4,9(10)-diene-11-ethynylphenyl derivatives, methods for the production thereof and use thereof for treating diseases” (Bayer Intellectual Property GmbH, priority 2009, dated 2015).
Converted amounts (≈) assume the structure as drawn.

Key:
[1] = biological target: T1, human progesterone receptor A (Homo sapiens, UniProt P06401); experiment: Progesterone receptor-antagonistic action in stably transfected SK-N-MC cells, PR-A, MMTV-LUC reporter; format: cell-based; conditions: read-out: IC50 PR-A
T1 construct: expressed in transfected cells; host or cells: SK-N-MC human neuroblastoma cells, stably transfected with pRChPR-A-neo and pMMTV-LUC
T1 sequence (P06401 1-769 isoform P06401-2): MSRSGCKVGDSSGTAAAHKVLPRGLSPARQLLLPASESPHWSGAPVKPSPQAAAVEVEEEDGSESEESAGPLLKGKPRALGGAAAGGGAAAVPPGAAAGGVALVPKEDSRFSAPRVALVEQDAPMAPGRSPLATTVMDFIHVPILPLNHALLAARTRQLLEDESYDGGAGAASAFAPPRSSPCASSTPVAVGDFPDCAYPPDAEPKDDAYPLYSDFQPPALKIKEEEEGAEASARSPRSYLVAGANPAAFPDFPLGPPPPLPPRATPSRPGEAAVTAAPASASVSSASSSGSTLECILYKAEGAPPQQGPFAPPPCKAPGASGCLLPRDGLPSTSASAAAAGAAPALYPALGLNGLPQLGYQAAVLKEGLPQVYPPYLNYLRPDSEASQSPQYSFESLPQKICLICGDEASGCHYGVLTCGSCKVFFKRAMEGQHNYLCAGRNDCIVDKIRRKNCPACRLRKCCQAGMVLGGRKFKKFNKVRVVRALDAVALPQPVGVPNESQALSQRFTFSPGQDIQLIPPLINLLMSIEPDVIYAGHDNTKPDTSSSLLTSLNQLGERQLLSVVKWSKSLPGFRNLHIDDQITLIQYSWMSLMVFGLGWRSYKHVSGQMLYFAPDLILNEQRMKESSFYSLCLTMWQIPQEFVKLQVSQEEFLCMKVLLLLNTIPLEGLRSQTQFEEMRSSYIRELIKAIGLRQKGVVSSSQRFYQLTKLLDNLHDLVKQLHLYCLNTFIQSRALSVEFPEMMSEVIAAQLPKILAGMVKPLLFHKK
In short: (§1)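 SK-N-MC neuroblastoma cells stably expressing human PR-A or PR-B plus MMTV-LUC reporter, treated 24 h with compound (0.01 nmol/l upward). Antagonism measured against 0.1 nmol/l promegestone; luciferase in lysates as RLU, given as % efficacy and IC50 (agonism as EC50).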

[2] = biological target: T2, human progesterone receptor B (Homo sapiens, UniProt P06401); experiment: Progesterone receptor-antagonistic action in stably transfected SK-N-MC cells, PR-B, MMTV-LUC reporter; format: cell-based; conditions: read-out: IC50 PR-B
T2 construct: expressed in transfected cells; host or cells: SK-N-MC human neuroblastoma cells, stably transfected with pRChPR-B-neo and pMMTV-LUC
T2 sequence (P06401 1-933): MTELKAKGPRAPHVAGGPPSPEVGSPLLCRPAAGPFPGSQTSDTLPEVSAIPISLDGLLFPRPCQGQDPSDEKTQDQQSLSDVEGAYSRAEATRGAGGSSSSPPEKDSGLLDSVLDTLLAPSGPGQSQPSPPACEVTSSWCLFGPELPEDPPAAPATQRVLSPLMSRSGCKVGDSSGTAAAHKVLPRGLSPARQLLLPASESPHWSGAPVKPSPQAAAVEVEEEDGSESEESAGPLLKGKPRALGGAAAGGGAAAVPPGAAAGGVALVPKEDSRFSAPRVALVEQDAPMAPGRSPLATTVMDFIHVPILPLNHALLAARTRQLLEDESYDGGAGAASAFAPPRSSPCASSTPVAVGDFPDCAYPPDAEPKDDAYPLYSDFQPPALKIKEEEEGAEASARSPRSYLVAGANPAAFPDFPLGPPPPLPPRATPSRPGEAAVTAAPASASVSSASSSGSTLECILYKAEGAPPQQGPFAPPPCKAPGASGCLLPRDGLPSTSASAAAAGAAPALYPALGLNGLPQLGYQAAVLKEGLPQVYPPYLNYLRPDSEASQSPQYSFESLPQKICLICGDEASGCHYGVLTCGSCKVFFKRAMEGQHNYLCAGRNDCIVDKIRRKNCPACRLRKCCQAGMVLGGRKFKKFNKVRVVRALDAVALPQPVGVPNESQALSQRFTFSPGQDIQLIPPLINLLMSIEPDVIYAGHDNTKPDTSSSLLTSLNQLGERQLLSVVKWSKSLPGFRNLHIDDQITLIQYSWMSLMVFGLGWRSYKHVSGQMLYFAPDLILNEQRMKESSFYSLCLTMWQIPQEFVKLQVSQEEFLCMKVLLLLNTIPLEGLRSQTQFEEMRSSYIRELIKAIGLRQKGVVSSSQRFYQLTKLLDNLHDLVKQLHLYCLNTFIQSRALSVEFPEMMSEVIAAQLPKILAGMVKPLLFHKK
In short: as §1

pregnant rats = experiment: Abortion test on female rats; format: in vivo; conditions: d5-d7 p.c., autopsy d9 p.c.
Method: Abortion Test on Female Rats
The action of progesterone and of the progesterone receptor is a fundamental precondition for successful pregnancy or gestation in mammals. The progesterone-antagonistic action of the inventive compounds was tested on pregnant rats (6 rats per group) on days 5 to 7 post coitum under conventional housing and feeding conditions.
After successful mating, the pregnant animals (presence of sperm in the vaginal smear on day 1 of pregnancy=d1 p.c.) were randomized and divided into the treatment group and the control group. The animals then each received subcutaneously or orally 0.15; 0.5; 1.5 or 5 mg/kg of the test compound or 1.0 ml/kg of vehicle (benzyl benzoate/castor oil: 1+4 [v/v]) daily from day 5 to day 7 (d5−d7 p.c.).
Autopsy was conducted on day 9 (d9 p.c.). As a characteristic of progesterone receptor-antagonistic action, the uterus was examined for the presence of nidation sites. Complete absence, or else the presence of pathological, haemorrhagic or otherwise abnormal nidation sites, on day 9 (d9 p.c.) was considered as abortion.

[3] = Metabolic stability in human liver microsomes; format: in vitro ADME; conditions: for Predicted clearance Human: predicted in vivo clearance from liver microsomes, well-stirred model, 1 μM
Method: (§2) Determination of Metabolic Stability in Human and Rat Liver Microsomes
Isolated Human Liver Microsomes (HLM) were Used to Assess the Metabolic Stability of compounds of general formula I.
(§3) The incubations were conducted with 2.4 ml of HLM solution (protein content 0.5 mg/ml), 30 μl of the test compound (final concentration 1 μM) and 0.6 ml of the cofactor mixture (═NADPH-generating system composed of 3 IU glucose-6-phosphate dehydrogenase, 14.6 mg glucose-6-phosphate, 1.2 mg NADP) at 37° C. in 100 mM phosphate buffer at pH 7.4. Samples were taken at 6 time points (2-60 min) and precipitated with an equal volume of methanol, and the recovery of the test substances used in the supernatant was determined by LC-MS/MS analysis. The half-life of substance degradation determined therefrom was used to calculate what is called the intrinsic clearance of the substance in the liver microsome preparation.

[4] = Solubility in aqueous medium at pH 7.4; format: physicochemical; conditions: for solubility: aqueous medium, pH 7.4, aqueous buffer
[5] = Clearance and half-life after intravenous administration in rats; format: in vivo; conditions: i.v. bolus 0.3-0.5 mg/kg; for CLblood: female rats
[6] = Metabolic stability in rat liver microsomes; format: in vitro ADME
Method: as §2, §3

| IC50 [1] | IC50 [2] | Predicted clearance Human [3] | solubility [4] | CLblood [5] | half-life ([5]; female, rat, plasma, iv, read-out: t1/2 (terminal half-life)) | solubility (in words) ([4]; aqueous medium under physiological conditions) | Predicted Fmax (maximum oral bioavailability) Human ([3]; calculated from liver microsome data) | predicted maximum bioavailability in rats (in words) [6] | Structure (SMILES) | Abortion rate (pregnant rats; daily dose 0.5 mg/kg p.o.) | Abortion rate (pregnant rats; daily dose 1.5 mg/kg p.o.) | Abortion rate (pregnant rats; daily dose 5.0 mg/kg p.o.) |
| --- | --- | --- | --- | --- | --- | --- | --- | --- | --- | --- | --- | --- |
| 0.097 nM | 0.11 nM | 5.33 mL/min/kg | 13 µg/mL (≈ 25 µM) | – | – | – | – | – | C[C@]12C[C@H](c3ccc(C#CCO)cc3)C3=C4CCC(=O)C=C4CC[C@H]3[C@@H]1CC[C@@]2(O)C(F)(F)C(F)(F)F [Example 1, (8S,11R,13S,14S,17S)-17-hydroxy-11-[4-(3-hydroxyprop-1-yn-1-yl)phenyl]-13-methyl-17-pentafluoroethyl-1,2,6,7,8,11,12,13,14,15,16,17-dodecahydrocyclopenta[a]phenanthren-3-one] | 100% | 100% | 100% |
| 0.2 nM | 0.1 nM | 1.5 mL/min/kg | 8 µg/mL (≈ 14.8 µM) | 55 ± 21.7 mL/min/kg | ≥ 1 h | – | – | – | C[C@]12C[C@H](c3ccc(C#C/C=C/C#N)cc3)C3=C4CCC(=O)C=C4CCC3C1CC[C@@]2(O)C(F)(F)C(F)(F)F (stereo partly drawn) [Example 4, (E)-5-[4-((8S,11R,13S,14S,17S)-17-hydroxy-13-methyl-3-oxo-17-pentafluoroethyl-2,3,6,7,8,11,12,13,14,15,16,17-dodecahydro-1H-cyclopenta[a]phenanthren-1′-yl)phenyl]pent-2-en-4-ynenitrile] | – | – | – |
| 0.1 nM | 0.05 nM | 5.5 mL/min/kg | 204 µg/mL (≈ 334 µM) | 35 ± 8.3 mL/min/kg | – | improved solubility | – | – | C[C@]12C[C@H](c3ccc(C#Cc4ccc(C(=O)O)cc4)cc3)C3=C4CCC(=O)C=C4CC[C@H]3[C@@H]1CC[C@@]2(O)C(F)(F)C(F)(F)F [Example 16, 4-[4-((8S,11R,13S,14S,17S)-17-hydroxy-13-methyl-3-oxo-17-pentafluoroethyl-2,3,6,7,8,11,12,13,14,15,16,17-dodecahydro-1H-cyclopenta[a]phenanthren-11-yl)phenylethynyl]benzoic acid] | 0% | 16.7% | 100% |
| 0.4 nM | 0.3 nM | 12 mL/min/kg | 17 µg/mL (≈ 34.2 µM) | – | – | – | 42% | good | C[C@]12C[C@H](c3ccc(CO)cc3)C3=C4CCC(=O)C=C4CC[C@H]3[C@@H]1CC[C@@]2(O)C(F)(F)C(F)(F)F [Ref. 1*, (8S,11R,13S,14S,17S)-17-hydroxy-11-[4-(hydroxymethyl)phenyl]-13-methyl-17-pentafluoroethyl-1,2,6,7,8,11,12,13,14,15,16,17-dodecahydrocyclopenta[a]phenanthren-3-one, reference compound] | – | – | – |
